According to US7282512B2, “Cycloalkyl ketoamides derivatives useful as cathepsin K inhibitors” (SmithKline Beecham Corporation, priority 2002, dated 2007):

What was measured:
human cathepsin K = molecular target: T1, human cathepsin K (Homo sapiens, UniProt P43235); assay: cathepsin K inhibition assay, fluorogenic substrate Cbz-Phe-Arg-AMC, progress curve method; format: biochemical; conditions: Table 1; human recombinant enzyme, pH 5.5, 30° C., 10 μM substrate; read-out: hcatK Ki
T1 construct: The proform of cathepsin K was converted to mature cathepsin K by brief exposure to pH 4; made in house; host or cells: baculovirus; Trichoplusia ni High Five cells (virus raised in Sf-9)
T1 sequence (P43235 115-329): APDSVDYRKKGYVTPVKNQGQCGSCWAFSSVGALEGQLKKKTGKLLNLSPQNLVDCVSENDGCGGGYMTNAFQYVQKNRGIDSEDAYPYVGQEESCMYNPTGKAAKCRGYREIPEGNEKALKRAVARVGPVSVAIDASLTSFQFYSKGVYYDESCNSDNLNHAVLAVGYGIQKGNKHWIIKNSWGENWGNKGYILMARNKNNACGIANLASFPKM
Description: All assays for cathepsin K were carried out with human and rat recombinant enzyme. Assays for cathepsins S & V were also carried out with human recombinant enzyme. Assays for human cathepsins B, H, and L were carried out with enzyme, purchased from Athens Research and Technology, Inc., prepared from human liver tissue. […] A stock substrate solution of Cbz-Phe-Arg-AMC was prepared at a concentration of 50 mM in dimethyl sulfoxide. This substrate was diluted into the assay for a final substrate concentration of 10 μM in the rat cathepsin K, human cathepsin K, and human cathepsin B assays; a final substrate concentration of 5 μM in the human cathepsin L assay; and a final substrate concentration of 2 μM in the human cathepsin V assay.
All assays contained 10% dimethyl sulfoxide. […] All assays were conducted at 30° C. Product fluorescence (excitation at 360 nm; emission at 440 nm, (except cathepsin H which used excitation at 340 nm; emission at 420 nm)) was monitored with a PerSeptive Biosystems Cytofluor II fluorescence plate reader. Product progress curves were generated over 2.3 h monitoring the formation of 7-amino-4-methylcoumarin product (or β-naphthalamide for cathepsin H).
Two liters of Spodoptera frugiperda (Sf-9) cells (ATCC) were grown in Grace's Supplemented medium (Life Technologies) supplemented with 2 g/L glucose, 10% fetal bovine serum (HyClone) and 0.1% pluronic F-68 (Life Technologies). […] The cells continued to grow for 72 h post-infection, before the virus was harvested by centrifugation at 1400×g for 30 min.
One and one-half liters of Trichoplusia ni (T. ni) High Five (™) cells [JRH Biosciences, Woodland, Calif. […] Media were separated from cells at a rate of 1 L/min using the Centritech 100 (™) continuous-flow centrifuge (DuPont) operating at 200×g.
Protein Purification: Media (human and rat) were filtered through a Whatman 3 filter, and then loaded onto a 25 mL Poros HS II (26 mm×47 mm) cation exchange column equilibrated in 25 mM sodium acetate at pH 5.5 (equilibration buffer). The column was washed until the absorbance reached the baseline value, and then the protein was eluted with a linear gradient from 0-2 M sodium chloride in the equilibration buffer. Column fractions were analyzed by SDS-PAGE, N-terminal sequencing, and mass spectrometry. Fractions containing the proform of cathepsin K were pooled and frozen at −80° C. The proform was concentrated in an Amicon Centriprep 10 and fractionated with a Superdex 75 column (26 mm×600 mm, Pharmacia) equilibrated in 400 mM sodium chloride, 25 mM sodium acetate at pH 5.5.
Cathepsin K Activation: The proform of cathepsin K was converted to mature cathepsin K by brief exposure to pH 4 in the presence of 5 mM L-cysteine. Typically, 5 mM L-cysteine was added to 10 mL of approximately 1 mg/mL procathepsin K. One mL of this solution was diluted ten-fold into 450 mM sodium acetate at pH 4.0 containing 5 mM L-cysteine. This solution was reacted at 23° C. for 2 min before neutralization with 2 mL 1.8 M sodium acetate at pH 6.0. The neutralized sample was added to the remaining 9 mL of procathepsin K. The mixture was incubated at 4° C. for 2-3 days. The activated cathepsin K was chromatographed on a Poros HS II column as described above.
Potential inhibitors were evaluated using the progress curve method. Assays were carried out in the presence of variable concentrations of test compound. Reactions were initiated by addition of buffered solutions of inhibitor and substrate to enzyme. Data analysis was conducted according to one of two procedures depending on the appearance of the progress curves in the presence of inhibitors. […] Ki values were calculated from IC50 values using equation 2 assuming a competitive model.

SMILES	melting point [°C]	Ki (human cathepsin K) [nM]
CCCC[C@H](NC(=O)OCC1(Cc2ccccc2)CCC1)C(=O)C(=O)N[C@H](C)c1ccccc1 [Example 5, (1-Benzylcyclobutyl)methyl(1S)-1-(oxo{[(1R)-1-phenylethyl]amino}acetyl)pentylcarbamate]	96 to 98	1 to 10
CCCC[C@H](NC(=O)OCC1(CCc2ccccc2)CCC1)C(=O)C(=O)N[C@H](C)c1ccccc1 [Example 6, [1-(2-Phenylethyl)cyclobutyl]methyl(1S)-1-(oxo{[(1R)-1-phenylethyl]amino}acetyl)pentylcarbamate]	86 to 88	10 to 100
CCCC[C@H](NC(=O)OCC1(CCCc2ccccc2)CCC1)C(=O)C(=O)N[C@H](C)c1ccccc1 [Example 7, [1-(3-Phenylpropyl)cyclobutyl]methyl(1S)-1-(oxo{[(1R)-1-phenylethyl]amino}acetyl)pentylcarbamate]	91 to 93	10 to 100
CCCC[C@H](NC(=O)OCC1(Cc2ccccc2)CCCC1)C(=O)C(=O)N[C@H](C)c1ccccc1 [Example 8, (1-Benzylcyclopentyl)methyl(1S)-1-(oxo{[(1R)-1-phenylethyl]amino}acetyl)pentylcarbamate]	108 to 110	10 to 100
CCCC[C@H](NC(=O)OCC1(COc2ncnc3ccsc23)CCC1)C(=O)C(=O)N[C@H](C)c1ccccc1 [Example 29, {1-[(thieno[3,2-d]pyrimidin-4-yloxy)methyl]cyclobutyl}methyl (1S)-1-(oxo{[(1R)-1-phenylethyl]amino}acetyl)pentylcarbamate]	–	10 to 100
CCCC[C@H](NC(=O)OCC1(COc2ncccn2)CCC1)C(=O)C(=O)N[C@H](C)c1ccccc1 [Example 30, {1-[(2-pyrimidinyloxy)methyl]cyclobutyl}methyl (1S)-1-(oxo {[(1R)-1-phenylethyl]amino}acetyl)pentylcarbamate]	–	100 to 1000
CCCC[C@H](NC(=O)OCC1(COc2nc(-c3ccc(C)cc3)cs2)CCC1)C(=O)C(=O)N[C@H](C)c1ccccc1 [Example 31, [1-({[4-(4-methylphenyl)-1,3-thiazol-2-yl]oxy}methyl)cyclobutyl]methyl (1S)-1-(oxo{[(1R)-1-phenylethyl]amino}acetyl)pentylcarbamate]	–	100 to 1000
CCCC[C@H](NC(=O)OCC1(CSc2nccc(-c3ccc(Cl)cc3)n2)CCC1)C(=O)C(=O)N[C@H](C)c1ccccc1 [Example 33, [1-({[4-(4-chloro phenyl)-2-pyrimidinyl]sulfanyl}methyl)cyclobutyl]methyl (1S)-1-(oxo{[(1R)-1-phenylethyl]amino}acetyl)pentylcarbamate]	–	1 to 10
CCCC[C@H](NC(=O)OCC1(CSc2ncc(-c3ccc(Cl)cc3)n2C)CCC1)C(=O)C(=O)N[C@H](C)c1ccccc1 [Example 34, [1-({[5-(4-chlorophenyl)-1-methyl-1H-imidazol-2-yl]sulfanyl}methyl)cyclobutyl]methyl (1S)-1-(oxo{[(1R)-1-phenylethyl]amino}acetyl)pentylcarbamate]	–	100 to 1000
CCCC[C@H](NC(=O)OCC1(CCSc2nccn2C)CCC1)C(=O)C(=O)N[C@H](C)c1ccccc1 [Example 36, (1-{2-[(1-methyl-1H-imidazol-2-yl)sulfanyl]ethyl}cyclobutyl)methyl (1S)-1-(oxo{[(1R)-1-phenylethyl]amino}acetyl)pentylcarbamate]	–	> 1000
CCCC[C@H](NC(=O)OCC1(CCCSc2nccn2C)CCC1)C(=O)C(=O)N[C@H](C)c1ccccc1 [Example 37, (1-{3-[(1-methyl-1H-imidazol-2-yl)sulfanyl]propyl}cyclobutyl)methyl (1S)-1-(oxo{[(1R)-1-phenylethyl]amino}acetyl)pentylcarbamate]	–	> 1000
CCCC[C@H](NC(=O)OCC1(CCCOc2ccnc(Cl)n2)CCC1)C(=O)C(=O)N[C@H](C)c1ccccc1 [Example 38, (1-{3-[(2-chloro-4-pyrimidinyl)oxy]propyl}cyclobutyl)methyl (1S)-1-(oxo{[(1R)-1-phenylethyl]amino}acetyl)pentylcarbamate]	–	> 1000
